Experimental data taken from PubChem BioAssay (NCI).
“And” between values parts separate entries of the source, which are not always exact repeats. Identical values can stand only once.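 48-hour exposure; five concentrations; linearly interpolated endpoints. Abbreviation: GI50, concentration required for 50% inhibition of growth. Definition used: TGI = concentration required for complete inhibition of growth.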

Key:
Assay in all cases: inhibition of tumour cell growth, NCI panel, 48 h
ACHN renal = test system: ACHN renal
M14 melanoma = test system: M14 melanoma
MDA-MB-435 = test system: MDA-MB-435
NCI/ADR-RES ovarian = test system: NCI/ADR-RES ovarian
PC-3 prostate = test system: PC-3 prostate
SK-OV-3 ovarian = test system: SK-OV-3 ovarian
SN12C renal = test system: SN12C renal
U251 CNS = test system: U251 CNS
UACC-257 melanoma = test system: UACC-257 melanoma
K-562 leukemia = test system: K-562 leukemia

SMILES	TGI (ACHN renal)	TGI (M14 melanoma)	TGI (MDA-MB-435)	TGI (NCI/ADR-RES ovarian)	TGI (PC-3 prostate)	TGI (SK-OV-3 ovarian)	TGI (SN12C renal)	TGI (U251 CNS)	TGI (UACC-257 melanoma)	GI50 (ACHN renal)	GI50 (M14 melanoma)	GI50 (MDA-MB-435)	GI50 (NCI/ADR-RES ovarian)	GI50 (PC-3 prostate)	GI50 (SK-OV-3 ovarian)	GI50 (SN12C renal)	GI50 (U251 CNS)	GI50 (UACC-257 melanoma)	TGI (K-562 leukemia)	GI50 (K-562 leukemia)
Clc1ccc(CN2CCCN(Cc3ccc(Cl)cc3)C2c2cc3ccccc3c3ccccc23)cc1	> 100 µM	34.2 µM	> 100 µM	> 100 µM	> 100 µM	> 100 µM	> 100 µM	> 100 µM	56.1 µM											
COc1cc(-c2nn(-c3cccc(NC(=O)CCNc4ccc(N5CCOCC5)cc4)c3)cc2-c2ccncc2)ccc1Cl	41.4 µM	10.5 µM	7.28 µM	> 100 µM	31.4 µM	> 100 µM	> 100 µM	63 µM	8.72 µM	2.44 µM	2.58 µM	2.41 µM	4.09 µM	2.8 µM	5.02 µM	3.19 µM	2.52 µM	2.38 µM		
Cc1ccc(C2CC(c3ccc(Nc4ccnc5cc(Cl)ccc45)cc3)=NN2C=O)cc1 (stereo not drawn)	> 100 µM	> 100 µM	> 100 µM	> 100 µM	> 100 µM	> 100 µM	> 100 µM	> 100 µM	> 100 µM	3.27 µM	6.88 µM	1.95 µM	5.22 µM	4.61 µM	> 100 µM	7.23 µM	> 100 µM	> 100 µM		
O=C1C(=O)C2(CC1S(=O)(=O)c1ccccc1)c1ccccc1-c1ccccc12 (stereo not drawn)	92 µM	28.4 µM				> 100 µM	78.1 µM	34.3 µM	33 µM										59.3 µM	
COc1cc2c3c(n(CCCNCCCNCCCN)c(=O)c2cc1OC)-c1cc2c(cc1C3=O)OCO2	> 100 µM	> 100 µM	> 100 µM			> 100 µM	> 100 µM	> 100 µM	> 100 µM	91.6 µM	52 µM	68.4 µM			> 100 µM	32.9 µM	46.2 µM	> 100 µM		
C1=CC2CCC1CN2CCC1CNc2ccccc21 (stereo not drawn)	> 100 µM	> 100 µM				> 100 µM	> 100 µM	> 100 µM	> 100 µM										> 100 µM	
COc1cc2cc(Oc3cccc(NC(=O)Nc4cc(C(F)(F)F)cc(C(F)(F)F)c4)c3)c(C)nc2cc1OC	1.69 µM	2.88 µM	4.28 µM		2.48 µM	3.47 µM	2.09 µM	2.47 µM	5.49 µM	0.39 µM	1 µM	1.8 µM		0.423 µM	1.71 µM	0.591 µM	1.08 µM	2.48 µM	2.53 µM	0.573 µM
COc1cc2c(c(OC)c1OC)C(=O)NCCC2	> 100 µM	> 100 µM		> 100 µM		> 100 µM	> 100 µM	> 100 µM	> 100 µM										> 100 µM	
Cc1ccc(OC(=O)N2C/C(=C\c3ccccc3)C(=O)/C(=C/c3ccccc3)C2)cc1	80.9 µM	21.6 µM			> 100 µM	86.2 µM	58.3 µM	38.6 µM	69.5 µM										> 51.7 µM	
COc1cc(N(C)C)c(OC)cc1C=C1C=CC=C1	> 100 µM	> 100 µM	> 100 µM	> 100 µM	> 100 µM	> 100 µM	> 100 µM	> 100 µM											> 100 µM	
C[C@H]1CC[P+](C)(c2ccccc2)C1 (stereo partly drawn)	> 100 µM	> 100 µM				> 100 µM	> 100 µM	> 100 µM	> 100 µM										> 100 µM	
CCCCCCCCCCCCCCCC[n+]1ccccc1	2.16 µM and 4.49 µM	1.04 µM		15.1 µM and 27 µM	0.846 µM and 0.692 µM	2.5 µM and 2.72 µM	1.9 µM	1.36 µM and 1.92 µM	1.95 µM and 4.67 µM	0.733 µM and 0.909 µM	0.28 µM		2.56 µM and 4.38 µM	0.243 µM and 0.244 µM	1.03 µM and 0.692 µM	0.563 µM	0.326 µM and 0.535 µM	0.534 µM and 1.56 µM	1.64 µM	0.278 µM
COc1ccc(/C=N/NS(=O)(=O)c2ccccc2)cc1	> 100 µM	> 100 µM				> 100 µM	> 100 µM	> 100 µM	> 100 µM										> 100 µM	
COc1cc(/C=C2\SC(N3CCCCC3)=NC2=O)ccc1OCCCCCCOc1ccc(/C=C2\SC(N3CCCCC3)=NC2=O)cc1OC	34.2 µM	> 100 µM	79.1 µM	28.2 µM	56.7 µM	17.4 µM	> 100 µM	16.1 µM	47.6 µM	15.1 µM	21.9 µM	10.8 µM	9.11 µM	12.4 µM	4.91 µM	19 µM	4.61 µM	17.4 µM		
C=C1C[C@@H]2O[C@H]3[C@H]4[C@@H](CC[C@@](C)(OC(=O)CCC)[C@H]42)[C@@H](C)C(=O)O[C@@]3(C)CC[C@H]1OO	31.1 µM	45.3 µM	33.1 µM	31.5 µM		> 100 µM	26.5 µM	30.1 µM	76.7 µM	17.3 µM	23.7 µM	17 µM	16.9 µM		> 100 µM	13.7 µM	16.5 µM	26.2 µM	3.28 µM	1.79 µM
COc1ccc(-c2c(N)noc2-c2cc(OC)c3c(c2)OCCO3)cc1	> 100 µM	0.048 µM	0.0102 µM	0.0226 µM	> 40.7 µM	1.01 µM	> 100 µM			0.131 µM	< 0.01 µM	< 0.01 µM	< 0.01 µM	< 0.0157 µM	< 0.0121 µM	0.0438 µM	< 0.0119 µM		> 100 µM	< 0.01 µM
CCCCC1(C(NC(=O)c2ccccc2Cl)c2ccncc2)C(=O)N(c2ccccc2)N(c2ccccc2)C1=O (stereo not drawn)	> 100 µM	> 100 µM				> 100 µM	> 100 µM	> 100 µM	> 100 µM										> 100 µM	
